Here are results for 52 molecules from patent US20260125359A1, “HETEROARYL COMPOUNDS AS MULTI-TARGET PROTEIN KINASE INHIBITORS” (FUJIAN HAIXI PHARMACEUTICALS CO., LTD., priority 2023, published 2026).

The test deals with M-NFS-60 cells. Put plainly: M-NFS-60 cell in vitro assay (CCK, 48 h, M-CSF factor medium). The format is cell-based. The settings on record: M-NFS-60 cells; read-out: M-NFS-60cellassay IC50. The gist of the method:
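Mouse M-NFS-60 cells (2000/well) in RPMI-1640 with 10% serum and M-CSF (25 ng/ml) were pre-incubated 4 h, then exposed to DMSO-diluted compound gradients for 48 h at 5% CO2. Viability read by CCK, 2 h, OD 450 nm; IC50 from curve fitting.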
In the case of `Cc1c(Nc2cccc3c2CC[C@@H]3Nc2cncc(Cl)c2)noc1C(C)(C)C` [Compound 40d, (S)—N^4-(5-(ter-butyl)-4-methylisoxazol-3-yl)-N^1-(5-chloropyridin-3-yl)-2,3-dihydro-1H-indene-1,4-diamine], the IC50 was in the range of 50 to 200 nM. For the molecule `CC(C)(C)c1cc(Nc2cccc3c2CC[C@@H]3Nc2cncc(Cl)c2)no1` [Compound 42a], the IC50 was 50 to 200 nM. Next, `CC(C)c1cc(Nc2cccc3c2CC[C@@H]3Nc2cncc(Cl)c2)no1` [Compound 42b]: 50 to 200 nM. In the case of `CC(C)(CO)c1cc(Nc2cccc3c2CC[C@@H]3Nc2cncc(Cl)c2)no1` [Compound 42c] it was less than 50 nM.

In the case of `Cn1nc(Nc2cccc3c2CC[C@@H]3Nc2cncc(Cl)c2)cc1C(F)(F)F` [Compound 42d], the half-inhibitory concentration (IC50) was more than 500 nM. Regarding `CC(C)(C)c1cc(Nc2cccc3c2CC[C@@H]3Nc2cncc(Cl)c2)n[nH]1` [Compound 42e], the concentration for half-maximal inhibition (IC50) was more than 500 nM. In the case of `Clc1cncc(N[C@H]2CCc3c(Nc4nc5c(s4)CCCC5)cccc32)c1` [Compound 42f], the IC50 was more than 500 nM. In the case of `CN1CCc2nc(Nc3cccc4c3CC[C@@H]4Nc3cncc(Cl)c3)sc2C1` [Compound 42g] it was more than 500 nM; in that of `CC(C)(C)c1ccnc(Nc2cccc3c2CC[C@@H]3Nc2cncc(Cl)c2)n1` [Compound 42h], more than 500 nM; in that of `CC(C)(C)c1nnc(Nc2cccc3c2CC[C@@H]3Nc2cncc(Cl)c2)s1` [Compound 42i], 50 to 200 nM.

As for `Clc1cncc(N[C@H]2CCc3c(Nc4noc5ccccc45)cccc32)c1` [Compound 42j], the IC50 is more than 500 nM. In the case of `Cn1cc(-c2cncc(N[C@H]3CCc4c(Nc5nc(C(C)(C)C)no5)cccc43)c2)cn1` [Compound 42k] it was 200 to 500 nM; in that of `Cn1cc(-c2cncc(N[C@H]3CCc4c(Nc5nnc(C(C)(C)C)o5)cccc43)c2)cn1` [Compound 42l], more than 500 nM; in that of `Cn1cc(-c2cncc(N[C@H]3CCc4c(Nc5ncc(C(C)(C)C)s5)cccc43)c2)cn1` [Compound 42m], 50 to 200 nM. With `Cn1cc(-c2cncc(N[C@H]3CCc4c(Nc5cc(C(C)(C)C)no5)cccc43)c2)cn1` [Compound 42n], the IC50 fell in the range of 50 to 200 nM. In the case of `Cn1cc(-c2cncc(N[C@H]3CCc4c(Nc5cc(C(C)(C)C(F)(F)F)on5)cccc43)c2)cn1` [Compound 42p], the IC50 is less than 50 nM.

For the molecule `Cn1cc(-c2cncc(N[C@H]3CCc4c(Nc5cc(C(F)(F)F)nn5C)cccc43)c2)cn1` [Compound 42q], the IC50 was more than 500 nM. As to `Cn1cc(-c2cncc(N[C@H]3CCc4c(Nc5cc(-c6ccccc6)on5)cccc43)c2)cn1` [Compound 42r], the IC50 was in the range of 50 to 200 nM. `Cn1cc(-c2cncc(N[C@H]3CCc4c(Nc5cc(C(C)(C)C)on5)ccc(F)c43)c2)cn1` [Compound 42s]: the IC50 is less than 50 nM. Regarding `Cn1cc(-c2cncc(N[C@H]3CCc4c(Nc5nc(C(C)(C)C)cs5)ccc(F)c43)c2)cn1` [Compound 42t], the IC50 lay in the range of 50 to 200 nM.

Take `Cc1cccc(C(=O)Nc2cc(F)cc3c2CCC3Nc2cncc(-c3cnn(C)c3)c2)c1` (stereo not shown) [Compound 44a]: the IC50 fell in the range of 50 to 200 nM. Regarding `Cc1cccc(C(=O)Nc2ccc(F)c3c2CCC3Nc2cncc(-c3cnn(C)c3)c2)c1` (stereo not shown) [Compound 44b], the IC50 is less than 50 nM. Regarding `Cc1cccc(C(=O)Nc2cccc3c2CC(F)C3Nc2cncc(-c3cnn(C)c3)c2)c1` (stereo not shown) [Compound 44c], the IC50 was in the range of 50 to 200 nM.

Consider `Cn1cc(-c2cncc(NC3CCc4c(NC(=O)c5cccc(C6CC6)c5)ccnc43)c2)cn1` (stereo not shown) [Compound 44e], for which the IC50 is 200 to 500 nM. As to `Cc1cccc(C(=O)Nc2ccc(F)c3c2CC[C@@H]3Nc2cncc(-c3cnn(C)c3)c2)c1` [Compound 45, (S)—N-(7-fluoro-1-((5-(1-methyl-1H-pyrazol-4-yl)pyridin-3-yl)amino)-2,3-dihydro-1H-inden-4-yl)-3-methylbenzamide], the IC50 was less than 50 nM.

Turning to `Cc1cccc(C(=O)Nc2cc(F)cc3c2CC[C@@H]3Nc2cncc(-c3cnn(C)c3)c2)c1` [Compound 46a], the IC50 is less than 50 nM. With `Cc1cccc(C(=O)Nc2c(F)ccc3c2CC[C@@H]3Nc2cncc(-c3cnn(C)c3)c2)c1` [Compound 46b], the IC50 was 50 to 200 nM. `Cn1cc(-c2cncc(N[C@H]3CCc4c(NC(=O)c5cccc(C6CC6)c5)ccc(F)c43)c2)cn1` [Compound 46c]: the IC50 is less than 50 nM. Take `Cn1cc(-c2cncc(N[C@H]3CCc4c(NC(=O)c5cccc(C(F)(F)F)c5)ccc(F)c43)c2)cn1` [Compound 46d]: the IC50 is less than 50 nM. `Cn1cc(-c2cncc(NC3COc4c(NC(=O)c5ccc(C(F)(F)F)cc5)cccc43)c2)cn1` (stereo not shown) [Compound 47, N-(3-((5-(1-methyl-1H-pyrazol-4-yl)pyridin-3-yl)amino)-2,3-dihydrobenzofuran-7-yl)-4-(trifluoromethyl)benzamide]: the IC50 fell in the range of 50 to 200 nM. Take `Cn1cc(-c2cncc(NC3CCc4c(Nc5cc(C(C)(C)C)on5)cccc43)c2)cn1` (stereo not shown) [Compound 48, N^4-(5-(tert-butyl)isoxazol-3-yl)-N^1-(5-(1-methyl-1H-pyrazol-4-yl)pyridin-3-yl)-2,3-dihydro-1H-indene-1,4-diamine]: the IC50 is less than 50 nM. Regarding `CN(c1cncc(-c2cnn(C)c2)c1)[C@H]1CCc2c(Nc3cc(C(C)(C)C)on3)cccc21` [Compound 49, (S)—N^4-(5-(tert-butyl)isoxazol-3-yl)-N^1-methyl-N1-(5-(1-methyl-1H-pyrazol-4-yl)pyridin-3-yl)-2,3-dihydro-1H-indene-1,4-diamine], the 50% inhibitory concentration (IC50) was more than 500 nM.

Turning to `Cn1cc(-c2cncc(N[C@H]3CCc4c(C(=O)Nc5cccc(C6CC6)c5)ccc(F)c43)c2)cn1` [Compound 50, (S)—N-(3-cyclopropylphenyl)-7-fluoro-1-((5-(1-methyl-1H-pyrazol-4-yl)pyridin-3-yl)amino)-2,3-dihydro-1H-indene-4-carboxamide], the half-inhibitory concentration (IC50) is less than 50 nM.

As for `Cn1cc(-c2cncc(N[C@H]3CCc4c3ccc(F)c4C(=O)Nc3cccc(C4CC4)c3)c2)cn1` [Compound 51a], the IC50 is less than 50 nM. `Cn1cc(-c2cncc(N[C@H]3CCc4c(C(=O)Nc5cccc(C6CC6)c5)cc(F)cc43)c2)cn1` [Compound 51b]: the half-inhibitory concentration (IC50) was less than 50 nM. As to `CN(c1cncc(-c2cnn(C)c2)c1)[C@H]1CCc2c(C(=O)Nc3cccc(C4CC4)c3)cc(F)cc21` [Compound 52, (S)—N-(3-cyclopropylphenyl)-6-fluoro-1-(methyl (5-(1-methyl-1H-pyrazol-4-yl)pyridin-3-yl)amino)-2,3-dihydro-1H-indene-4-carboxamide], the IC50 was less than 50 nM. Regarding `Cn1cc(-c2cncc(O[C@H]3CCc4c3ccc(F)c4C(=O)Nc3cccc(C4CC4)c3)c2)cn1` [Compound 53, (S)—N-(3-cyclopropylphenyl)-5-fluoro-1-((5-(1-methyl-1H-pyrazol-4-yl)pyridin-3-yl)oxy)-2,3-dihydro-1H-indene-4-carboxamide], the IC50 is 50 to 200 nM. In the case of `Cn1cc(-c2cncc(N[C@H]3CCc4c(C(=O)Nc5cccc(C6CC6)c5)ccnc43)c2)cn1` [Compound 55, (S)—N-(3-cyclopropylphenyl)-7-((5-(1-methyl-1H-pyrazol-4-yl)pyridin-3-yl)amino)-6,7-dihydro-5H-cyclopenta[b]pyridine-4-carboxamide], the 50% inhibitory concentration (IC50) was in the range of 200 to 500 nM. Turning to `Cn1cc(-c2cc(O[C@H]3CCc4c(C(=O)Nc5ccc(C(F)(F)F)cc5)cccc43)ccn2)cn1` [Compound 56, (S)-1-((2-(1-methyl-1H-pyrazol-4-yl)pyridin-4-yl)oxy)-N-(4-(trifluoromethyl)phenyl)-2,3-dihydro-1H-indene-4-carboxamide], the 50% inhibitory concentration (IC50) was more than 500 nM. Next, `Cn1cc(-c2cc(N[C@H]3CCc4c(C(=O)Nc5cccc(C6CC6)c5)cccc43)ccn2)cn1` [Compound 57, (S)—N-(3-cyclopropylphenyl)-1-((2-(1-methyl-1H-pyrazol-4-yl)pyridin-4-yl)amino)-2,3-dihydro-1H-indene-4-carboxamide]: more than 500 nM. Consider `Cn1cc(-c2cncc(N[C@H]3CCc4c(CNc5ccc(C(F)(F)F)cc5)cccc43)c2)cn1` [Compound 58, (S)-5-(1-methyl-1H-pyrazol-4-yl)-N-(4-(((4-(trifluoromethyl)phenyl)amino)methyl)-2,3-dihydro-1H-inden-1-yl) pyridin-3-amine], for which the IC50 was more than 500 nM. Turning to `COc1ccc(NCc2cccc3c2CC[C@@H]3Nc2cncc(-c3cnn(C)c3)c2)cc1` [Compound 59a], the IC50 is 200 to 500 nM. For the molecule `Cn1cc(-c2cncc(N[C@H]3CCc4c(CNc5cccc(C6CC6)c5)cccc43)c2)cn1` [Compound 59b], the IC50 fell in the range of 200 to 500 nM. On to `Cn1cc(-c2cncc(N[C@H]3CCc4c(CNc5cccc(C(F)(F)F)c5)cccc43)c2)cn1` [Compound 59c], for which the IC50 was more than 500 nM. For the molecule `Cc1cccc(NCc2cccc3c2CC[C@@H]3Nc2cncc(-c3cnn(C)c3)n2)c1` [Compound 59d], the IC50 fell in the range of 200 to 500 nM.

As to `Cn1cc(-c2cncc(N[C@H]3CCc4c(CNc5ccccc5F)cccc43)n2)cn1` [Compound 59e], the IC50 was more than 500 nM.

On to `Cn1cc(-c2cncc(N[C@H]3CCc4c(CNC5CCCCC5)cccc43)n2)cn1` [Compound 59f], for which the IC50 is more than 500 nM.

Consider `Cn1cc(-c2cncc(N[C@H]3CCc4c(NC5CCCCC5)cccc43)n2)cn1` [Compound 60a], for which the IC50 is more than 500 nM. Take `Cn1cc(-c2cncc(N[C@H]3CCc4c(NCC5CCCCC5)cccc43)n2)cn1` [Compound 60b]: the IC50 was more than 500 nM. Next, `Cn1cc(-c2cncc(N[C@H]3CCc4c(NCc5cccc(Cl)c5)cccc43)n2)cn1` [Compound 60c]: more than 500 nM. In the case of `Cn1cc(-c2cncc(N[C@H]3CCc4c(NCc5cccc(F)c5)cccc43)n2)cn1` [Compound 60d] it was more than 500 nM; in that of `Cc1cncc(CNc2cccc3c2CC[C@@H]3Nc2cncc(-c3cnn(C)c3)n2)c1` [Compound 60e], more than 500 nM.

The IC50 is the concentration at which inhibition is half-maximal.
